{
  "source": "patent US20240148821A1",
  "about": "“PHARMACEUTICAL USE OF CYCLIC PEPTIDE COMPOUND” (CHUGAI SEIYAKU KABUSHIKI KAISHA, priority 2021, published 2024)",
  "key": {"[1]": {"tested_on": "Human pancreatic cancer cell line AsPC-1 (G12D mutation Kras)", "experiment": "AsPC-1 cell growth inhibition (AsPC-1 CGI)", "assay_type": "cell-based", "conditions": "read-out: AsPC-1 cell growth inhibition, 50% growth inhibitory concentration (IC50 value); 96 hours, CellTiter-Glo, values classified in ranges", "procedure": "Test compounds were serially dilated with dimethyl sulfoxide, and 200 nL was then dispensed to a U-bottom 96-well plate using Labcyte Echo. […] The cell suspension was dispensed to a. plate containing a test compound at 100 μL per well and incubated at 37° C. in a 5% carbon dioxide gas incubator. 96 hours later, 80 μL of CellTiter-Glo (Promega) was added to each well and fluorescence was measured."}, "[2]": {"target": "protein-protein interaction between Kras and SOS1 (biotin-tagged human Kras loaded with GDP, His-tagged human SOS1) (Homo sapiens (Human), UniProt P01116, G12D)", "experiment": "Protein-protein interaction inhibition between Kras and SOS1 (KrasG12D-SOS PPI) using AlphaScreen;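 also: kras produced in E. coli, Ni-coupled donor beads and streptavidin acceptor beads, excitation 680 nm with emission detected at 520–620 nm via singlet oxygen transfer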", "assay_type": "biochemical", "conditions": "AlphaScreen; biotin-tagged human Kras loaded with GDP, His-tagged human SOS1; read-out: KRAS G12D-SOS PPI IC50"}},
  "note": "pIC50: −log10 of the molar value. Numbered stars: 1 amine (or outer) side, 2 acyl side, 3 side chain; on linkers, the order of the positions; unused ones are H or OH. Bridge positions count the residues as written; N and C are the ends. Square brackets hold non-standard residues; d marks the D form. Peptide text beside a SMILES is read from it. * marks the point of attachment. hPhe(3-Cl-4-CF3) = N[C@@H](CCc1ccc(C(F)(F)F)c(Cl)c1)C(=O)O; hPhe(3-F,4-CF3) = N[C@@H](CCc1ccc(C(F)(F)F)c(F)c1)C(=O)O; NMePhe(4-CF3) = CN[C@@H](Cc1ccc(C(F)(F)F)cc1)C(=O)O; Pro(trans-4-Ph) = O=C(O)[C@@H]1C[C@@H](c2ccccc2)CN1; hPhe(4-CF3) = N[C@@H](CCc1ccc(C(F)(F)F)cc1)C(=O)O; NEtPhe(4-Cl) = CCN[C@@H](Cc1ccc(Cl)cc1)C(=O)O; NEtPhe(4-Me) = CCN[C@@H](Cc1ccc(C)cc1)C(=O)O; NMedβ3hAla = C[C@H](CC(=O)[*:2])N(C)[*:1]; NMeGly(cPent) = CN[C@H](C(=O)O)C1CCCC1; NMeGly(cBu) = CN[C@H](C(=O)O)C1CCC1; NMeCha = CN[C@@H](CC1CCCCC1)C(=O)O; NMeChg = CN[C@H](C(=O)O)C1CCCCC1; NMeI = CC[C@H](C)[C@H](NC)C(=O)O; Gly(cPr) = N[C@H](C(=O)O)C1CC1; NMeD = CN[C@@H](CC(=O)O)C(=O)O; NMeL = CN[C@@H](CC(C)C)C(=O)O; Ala(CN) = N#CC[C@H](N)C(=O)O; NMeV = CN[C@H](C(=O)O)C(C)C; NMeS = CN[C@@H](CO)C(=O)O; Morpholide = C1CN(*)CCO1; NMeA = CN[C@@H](C)C(=O)O; NMeAib = CNC(C)(C)C(=O)O; Nle = CCCC[C@H](N)C(=O)O; Piperidide = C1CCN(*)CC1; Ac5c = NC1(C(=O)O)CCCC1; Aze = O=C(O)[C@@H]1CCN1; Sar = CNCC(=O)O; Propyl = CCC*",
  "data": [
    {"smiles": "CC[C@H](C)[C@@H]1NC(=O)[C@H](CC(C)C)N(C)C(=O)C[C@@H](C(=O)N2CCCCC2)N(C)C(=O)[C@H](C2CCCCC2)N(C)C(=O)C2(CCCC2)NC(=O)[C@@H]2C[C@@H](c3ccccc3)CN2C(=O)[C@H](CCc2ccc(C(F)(F)F)c(Cl)c2)NC(=O)CN(C)C(=O)[C@H](CC2CCCCC2)N(C)C(=O)[C@@H]2CCCN2C(=O)CN(C)C1=O", "note": "[Compound 255] ([NMeL]I[Sar]P[NMeCha][Sar][hPhe(3-Cl-4-CF3)][Pro(trans-4-Ph)][Ac5c][NMeChg][NMeD]-Piperidide; lactam N-11)", "values": [
      {"measurement": "pIC50", "setting": "[1]", "result": "< 6.30"},
      {"measurement": "pIC50", "setting": "[2]", "result": 8.11}
    ]},
    {"smiles": "CCCC[C@@H]1NC(=O)[C@H](CCc2ccc(C(F)(F)F)c(F)c2)NC(=O)CN(C)C(=O)[C@H](Cc2ccc(Cl)cc2)N(CC)C(=O)CN(C)C(=O)CN(C)C(=O)[C@H]([C@@H](C)CC)NC(=O)[C@H](CC(C)C)N(C)C(=O)C[C@@H](C)N(C)C(=O)[C@H](CC(C)C)NC(=O)C(C)(C)N(C)C1=O", "note": "[Compound 257] (cyclo(I[Sar][Sar][NEtPhe(4-Cl)][Sar][hPhe(3-F,4-CF3)][Nle][NMeAib]L[NMedβ3hAla][NMeL]))", "values": [
      {"measurement": "pIC50", "setting": "[1]", "result": "< 6.30"},
      {"measurement": "pIC50", "setting": "[2]", "result": 7.01}
    ]},
    {"smiles": "CC[C@H](C)[C@@H]1NC(=O)[C@H](CC(C)C)N(C)C(=O)C[C@@H](C)N(C)C(=O)[C@H](CC(C)C)NC(=O)C(C)(C)N(C)C(=O)[C@H](CC(C)C)NC(=O)[C@H](CCc2ccc(C(F)(F)F)cc2)NC(=O)CN(C)C(=O)[C@H](CC2CCCCC2)N(C)C(=O)CN(C)C(=O)CN(C)C1=O", "note": "[Compound 262] (cyclo(I[Sar][Sar][NMeCha][Sar][hPhe(4-CF3)]L[NMeAib]L[NMedβ3hAla][NMeL]))", "values": [
      {"measurement": "pIC50", "setting": "[1]", "result": "< 6.30"},
      {"measurement": "pIC50", "setting": "[2]", "result": 7.37}
    ]},
    {"smiles": "CC[C@H](C)[C@@H]1NC(=O)[C@H](C2CCC2)N(C)C(=O)C[C@@H](C(=O)N2CCCCC2)N(C)C(=O)[C@H](C2CCCC2)N(C)C(=O)C2(CCCC2)NC(=O)[C@@H]2CCCN2C(=O)[C@H](CCc2ccc(C(F)(F)F)c(Cl)c2)NC(=O)CN(C)C(=O)[C@H](CC2CCCCC2)N(C)C(=O)[C@@H]2CCN2C(=O)[C@H](C)N(C)C1=O", "note": "[Compound 270] ([NMeGly(cBu)]I[NMeA][Aze][NMeCha][Sar][hPhe(3-Cl-4-CF3)]P[Ac5c][NMeGly(cPent)][NMeD]-Piperidide; lactam N-11)", "values": [
      {"measurement": "pIC50", "setting": "[1]", "result": "≥ 7.70"},
      {"measurement": "pIC50", "setting": "[2]", "result": 9.17}
    ]},
    {"smiles": "CC[C@H](C)[C@@H]1NC(=O)[C@H](CC(C)C)N(C)C(=O)C[C@@H](C(=O)N2CCOCC2)N(C)C(=O)[C@H]([C@@H](C)CC)N(C)C(=O)C2(CCCC2)NC(=O)[C@@H]2CCCN2C(=O)[C@H](CCc2ccc(C(F)(F)F)c(Cl)c2)NC(=O)CN(C)C(=O)[C@H](Cc2ccc(C(F)(F)F)cc2)N(C)C(=O)[C@@H]2CCN2C(=O)[C@H](C)N(C)C1=O", "note": "[Compound 276] ([NMeL]I[NMeA][Aze][NMePhe(4-CF3)][Sar][hPhe(3-Cl-4-CF3)]P[Ac5c][NMeI][NMeD]-Morpholide; lactam N-11)", "values": [
      {"measurement": "pIC50", "setting": "[1]", "result": "≥ 7.70"},
      {"measurement": "pIC50", "setting": "[2]", "result": 9.12}
    ]},
    {"smiles": "CC(C)C[C@H]1C(=O)N[C@@H](CC#N)C(=O)N(C)[C@@H](C)C(=O)N2CC[C@H]2C(=O)N(C)[C@@H](CC2CCCCC2)C(=O)N(C)CC(=O)N[C@@H](CCc2ccc(C(F)(F)F)c(Cl)c2)C(=O)N2CCC[C@H]2C(=O)NC2(CCCC2)C(=O)N(C)[C@@H](C(C)C)C(=O)N(C)[C@H](C(=O)N2CCCCC2)CC(=O)N1C", "note": "[Compound 278] ([NMeL][Ala(CN)][NMeA][Aze][NMeCha][Sar][hPhe(3-Cl-4-CF3)]P[Ac5c][NMeV][NMeD]-Piperidide; lactam N-11)", "values": [
      {"measurement": "pIC50", "setting": "[1]", "result": "< 6.30"},
      {"measurement": "pIC50", "setting": "[2]", "result": 7.60}
    ]},
    {"smiles": "CC[C@H](C)[C@@H]1NC(=O)[C@H](CC(C)C)N(C)C(=O)C[C@@H](C(=O)N(C)C)N(C)C(=O)[C@H](C2CCCC2)N(C)C(=O)C2(CCCC2)NC(=O)[C@@H]2CCCN2C(=O)[C@H](CCc2ccc(C(F)(F)F)c(Cl)c2)NC(=O)CN(C)C(=O)[C@H](Cc2ccc(C)cc2)N(CC)C(=O)[C@@H]2CCN2C(=O)[C@H](C)N(C)C1=O", "note": "[Compound 279] ([NMeL]I[NMeA][Aze][NEtPhe(4-Me)][Sar][hPhe(3-Cl-4-CF3)]P[Ac5c][NMeGly(cPent)][NMeD]-NMe2; lactam N-11)", "values": [
      {"measurement": "pIC50", "setting": "[1]", "result": "≥ 7.70"},
      {"measurement": "pIC50", "setting": "[2]", "result": 9.00}
    ]},
    {"smiles": "CC(C)C[C@H]1C(=O)N[C@@H](C2CC2)C(=O)N(C)[C@@H](C)C(=O)N2CC[C@H]2C(=O)N(C)[C@@H](CC2CCCCC2)C(=O)N(C)CC(=O)N[C@@H](CCc2ccc(C(F)(F)F)c(Cl)c2)C(=O)N2CCC[C@H]2C(=O)NC2(CCCC2)C(=O)N(C)[C@@H](C(C)C)C(=O)N(C)[C@H](C(=O)N2CCCCC2)CC(=O)N1C", "note": "[Compound 280] ([NMeL][Gly(cPr)][NMeA][Aze][NMeCha][Sar][hPhe(3-Cl-4-CF3)]P[Ac5c][NMeV][NMeD]-Piperidide; lactam N-11)", "values": [
      {"measurement": "pIC50", "setting": "[1]", "result": "< 6.30"},
      {"measurement": "pIC50", "setting": "[2]", "result": 7.62}
    ]},
    {"smiles": "CCCOC[C@H]1C(=O)N(C)CC(=O)N[C@@H](CCc2ccc(C(F)(F)F)c(F)c2)C(=O)N2CCC[C@H]2C(=O)NC2(CCCC2)C(=O)N(C)[C@@H](C2CCCC2)C(=O)N(C)[C@H](C(=O)N(C)C)CC(=O)N(C)[C@@H](CC(C)C)C(=O)N[C@@H]([C@@H](C)CC)C(=O)N(C)[C@@H](C)C(=O)N2CC[C@H]2C(=O)N1C", "note": "[Compound 289] ([NMeL]I[NMeA][Aze][NMeS](Propyl)[Sar][hPhe(3-F,4-CF3)]P[Ac5c][NMeGly(cPent)][NMeD]-NMe2; lactam N-11)", "values": [
      {"measurement": "pIC50", "setting": "[1]", "result": "≥ 7.70"},
      {"measurement": "pIC50", "setting": "[2]", "result": 9.52}
    ]}
  ]
}
